Reference: PubChem BioAssay (NCI)
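Following 48 hours of exposure in 96-well plates, responses at five concentrations were used to interpolate endpoints linearly. TGI marks complete inhibition of growth.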

Legend:
Test in all cases: NCI tumour cell line growth inhibition, 48 h
DU-145 prostate = test system: DU-145 prostate
M14 melanoma = test system: M14 melanoma
NCI/ADR-RES ovarian = test system: NCI/ADR-RES ovarian
MDA-MB-231 breast = test system: MDA-MB-231 breast
OVCAR-4 ovarian = test system: OVCAR-4 ovarian
SF-295 CNS = test system: SF-295 CNS
SF-268 CNS = test system: SF-268 CNS
TK-10 renal = test system: TK-10 renal
SF-539 CNS = test system: SF-539 CNS
SNB-75 CNS = test system: SNB-75 CNS

Structure (SMILES)	TGI (DU-145 prostate) [µM]	TGI (M14 melanoma) [µM]	TGI (NCI/ADR-RES ovarian) [µM]	TGI (MDA-MB-231 breast) [µM]	TGI (OVCAR-4 ovarian) [µM]	TGI (SF-295 CNS) [µM]	TGI (SF-268 CNS) [µM]	TGI (TK-10 renal) [µM]	TGI (SF-539 CNS) [µM]	TGI (SNB-75 CNS) [µM]
CO/C(=N\N=C\c1ccc(Cl)cc1Cl)c1ccncc1	> 10	> 10	> 10	> 10	> 10	> 10	> 10	> 10		
N=S(=O)(c1ccccc1)c1ccccc1[N+](=O)[O-] (stereo not given)		> 100			> 100	> 100		> 100	> 100	> 100
O=C(c1ccccc1)c1c(C(F)(F)F)n([O-])c2cc(Cl)c(Cl)cc2[n+]1=O	0.985	3.2	6.36		3.12	7.31	1.41	2.56	3.88	2.58
COC(=O)c1ccccc1C#CCCCOS(C)(=O)=O	> 10	> 10	> 10	> 10	> 10	> 10	> 10	> 10	> 10	
C[C@H](CC[C@@H](O)C(C)(C)O)[C@H]1CC[C@@]2(C)[C@@H]3CC=C4[C@@H](CC[C@H](O)C4(C)C)[C@]3(C)C(=O)C[C@]12C	> 50	> 50	> 50	> 50	> 50	> 50		> 50	> 50	
O=c1[nH]c(=O)n(COCc2ccccc2)c2ccc(Br)cc12	> 100	> 100	> 100	> 100	> 100	> 100		> 100	> 100	> 100
COc1cccc2c1C1(O)C2CCCC12OCCCO2 (stereo not given)		> 100			> 100	> 100	> 100	> 100	> 100	> 100
O=C1C=C2CO[C@H]3OC[C@H](O)[C@@H]1[C@@H]23	> 100	> 100	> 100	> 100		> 100	> 100	> 100		> 100
CC(=NCCN(CCN=C(C)c1c(O)cc(C)oc1=O)CCN=C(C)c1c(O)cc(C)oc1=O)c1c(O)cc(C)oc1=O		> 100	> 100	> 100	> 100	> 100	> 100	> 100	> 100	> 100
S=C1C(=Nc2ccccc2)N(c2ccccc2)/C(=N\c2ccccn2)N1c1ccccc1	35		33.7	31.6	29.5	29.9	31.4	28.8	20.9	28.3
CC(=Nc1c2ccccc2nc2ccccc12)N(C)C	> 100	25.4	54.8	30.4	90.8	> 100	> 100	> 100		71
CCN(CC)C(=S)N/N=C/c1ccccn1	1.27	0.349	0.692	> 100	> 100	> 77.1	> 66.4		0.377	44.8
